{
  "source": "ChEMBL document CHEMBL5584338",
  "about": "“Design, Synthesis, and Biological Evaluation of 5-Amino-4-fluoro-1H-benzo[d]imidazole-6-carboxamide Derivatives as Novel and Potential MEK/RAF Complex Inhibitors Based on the \"Clamp\" Strategy” (J Med Chem, 2024)",
  "key": {"MIA PaCa-2 [1]": {"tested_on": "MIA PaCa-2", "experiment": "Induction of apoptosis in human MIA PaCa-2 cells assessed as increase in cleaved PARP-1 level upto 1 uM incubated for 24 hrs by Western blot analysis", "type": "functional, cell-based"}, "[2]": {"target": "T1, Dual specificity mitogen-activated protein kinase kinase 1 (Homo sapiens, UniProt Q02750)", "T1 sequence (Q02750 whole entry)": "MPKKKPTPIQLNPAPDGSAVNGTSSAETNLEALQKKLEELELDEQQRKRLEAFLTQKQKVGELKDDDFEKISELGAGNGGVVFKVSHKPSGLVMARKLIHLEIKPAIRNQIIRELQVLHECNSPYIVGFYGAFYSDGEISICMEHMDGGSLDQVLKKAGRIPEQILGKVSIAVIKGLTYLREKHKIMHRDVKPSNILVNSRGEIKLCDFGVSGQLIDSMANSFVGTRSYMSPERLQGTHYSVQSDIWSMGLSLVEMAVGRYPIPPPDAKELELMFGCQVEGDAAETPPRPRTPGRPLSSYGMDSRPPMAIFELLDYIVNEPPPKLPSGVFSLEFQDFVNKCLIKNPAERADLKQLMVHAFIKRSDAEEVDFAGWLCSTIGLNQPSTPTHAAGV", "experiment": "Inhibition of MEK1 (unknown origin) assessed as remaining activity at 0.1 uM relative to control"}, "MIA PaCa-2 [3]": {"tested_on": "MIA PaCa-2", "experiment": "Inhibition of MEK1/2/BRAF complex in human MIA PaCa-2 cells at 100 nM incubated for 4 hrs by co-immunoprecipitation method", "type": "cell-based"}, "[4]": {"tested_on": "Mitogen-activated protein kinase 1/3 (ERK1/2) (Homo sapiens)", "experiment": "Inhibition of ERK phosphorylation in human MIA PaCa-2 cells at lower concentration incubated for at least 48 hrs by Western blot analysis"}, "[5]": {"experiment": "Toxicity in NU/NU mouse xenografted with human HCT-116 cells harboring KRAS G13D mutant assessed as body weight change at 15 to 30 mg/kg, iv administered 5 times a week for 16 days", "type": "organism-based", "settings": "in vivo, 384 h, dose 15-30 mg/kg, time 16 day"}, "MIA PaCa-2 [6]": {"tested_on": "MIA PaCa-2", "experiment": "Induction of apoptosis in human MIA PaCa-2 cells assessed as late apoptotic cells at 1 uM incubated for 24 hrs by Annexin V-FITC/PI staining based flow cytometry (reference value: 6.90 %)", "type": "functional"}, "[7]": {"experiment": "Antiproliferative activity against mouse C26 cells harboring KRAS G12D mutant incubated for 72 hrs by CCK8 assay", "type": "functional, cell-based, C-26", "settings": "C26, 72 h"}, "[8]": {"experiment": "Antitumor activity against mouse C26 cells harboring KRAS G12D mutant xenografted in BALB/c mouse at 30 mg/kg, iv administered 5 times a week for 12 days relative to control", "type": "functional, C-26", "settings": "C26, 288 h, time 12 day, read-out: TGI"}, "[9]": {"target": "T2, Serine/threonine-protein kinase B-raf (Homo sapiens, UniProt P15056)", "T2 sequence (P15056 whole entry)": "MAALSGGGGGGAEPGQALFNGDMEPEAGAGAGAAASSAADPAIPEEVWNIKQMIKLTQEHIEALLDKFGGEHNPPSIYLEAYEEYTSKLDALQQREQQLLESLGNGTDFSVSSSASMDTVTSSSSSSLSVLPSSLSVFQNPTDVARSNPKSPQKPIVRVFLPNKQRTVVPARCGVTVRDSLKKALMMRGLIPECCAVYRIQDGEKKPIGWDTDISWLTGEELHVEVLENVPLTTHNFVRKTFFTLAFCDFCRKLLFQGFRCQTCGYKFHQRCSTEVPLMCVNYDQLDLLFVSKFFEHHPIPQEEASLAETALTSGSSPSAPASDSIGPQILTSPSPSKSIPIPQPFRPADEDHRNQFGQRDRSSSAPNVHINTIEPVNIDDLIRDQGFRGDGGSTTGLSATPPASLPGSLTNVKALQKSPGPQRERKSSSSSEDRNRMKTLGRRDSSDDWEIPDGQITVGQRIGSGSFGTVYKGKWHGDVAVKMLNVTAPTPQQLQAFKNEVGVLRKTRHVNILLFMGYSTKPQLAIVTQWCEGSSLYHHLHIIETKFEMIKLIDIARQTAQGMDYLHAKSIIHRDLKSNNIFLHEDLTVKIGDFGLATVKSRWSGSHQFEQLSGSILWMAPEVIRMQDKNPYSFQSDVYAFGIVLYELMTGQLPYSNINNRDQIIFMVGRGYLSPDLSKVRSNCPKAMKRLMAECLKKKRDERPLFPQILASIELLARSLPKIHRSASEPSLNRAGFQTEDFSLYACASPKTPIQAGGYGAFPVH", "experiment": "Inhibition of BRAF (unknown origin) assessed as remaining activity at 0.1 uM relative to control"}, "[10]": {"experiment": "Antiproliferative activity against rat H9c2 cells incubated for 72 hrs by CCK8 assay", "type": "toxicity, cell-based"}, "MIA PaCa-2 [11]": {"tested_on": "MIA PaCa-2", "experiment": "Induction of apoptosis in human MIA PaCa-2 cells assessed as early apoptotic cells at 1 uM incubated for 24 hrs by Annexin V-FITC/PI staining based flow cytometry (reference value: 5.02 %)", "type": "functional"}, "HCT-116 [12]": {"tested_on": "HCT-116", "experiment": "Antitumor activity against human HCT-116 cells harboring KRAS G13D mutant xenografted in NU/NU mouse at 30 mg/kg, iv administered 5 times a week for 16 days relative to control", "type": "functional", "settings": "HCT-116, 384 h, time 16 day, read-out: TGI"}, "HCT-116 [13]": {"tested_on": "HCT-116", "experiment": "Antiproliferative activity against human HCT-116 cells harboring KRAS G13D mutant incubated for 72 hrs by CCK8 assay", "type": "functional, cell-based", "settings": "HCT-116, 72 h"}, "[14]": {"target": "T1, Dual specificity mitogen-activated protein kinase kinase 1", "experiment": "Inhibition of MEK1 (unknown origin) at 1 uM by kinase profiling analysis"}, "[15]": {"target": "Dual specificity mitogen-activated protein kinase kinase 2 (Homo sapiens) (UniProt P36507)", "sequence (P36507 whole entry)": "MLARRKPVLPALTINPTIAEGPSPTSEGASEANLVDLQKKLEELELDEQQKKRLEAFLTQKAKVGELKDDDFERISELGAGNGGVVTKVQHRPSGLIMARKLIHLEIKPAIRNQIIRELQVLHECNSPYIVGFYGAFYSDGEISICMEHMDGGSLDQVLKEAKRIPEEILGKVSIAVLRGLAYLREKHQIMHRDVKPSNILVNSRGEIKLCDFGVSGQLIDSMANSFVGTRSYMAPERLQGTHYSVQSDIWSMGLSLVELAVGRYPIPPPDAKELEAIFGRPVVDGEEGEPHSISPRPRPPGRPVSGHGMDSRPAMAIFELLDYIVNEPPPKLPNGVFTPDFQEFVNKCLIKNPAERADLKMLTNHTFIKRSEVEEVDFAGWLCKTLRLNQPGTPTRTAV", "experiment": "Binding affinity to MEK2 (unknown origin) at 1 uM by kinase profiling analysis"}, "[16]": {"target": "T1, Dual specificity mitogen-activated protein kinase kinase 1", "experiment": "Inhibition of MEK1 (unknown origin)"}, "C-26": {"tested_on": "C-26", "experiment": "Antitumor activity against mouse C26 cells harboring KRAS G12D mutant xenografted in BALB/c mouse assessed as tumor growth inhibition administered intravenously 5 times a week for 12 days", "type": "functional, cell-based", "settings": "dose 5-30 mg/kg, route iv, time 12.0 day"}, "MIA PaCa-2 [17]": {"tested_on": "MIA PaCa-2", "experiment": "Antiproliferative activity against human MIA PaCa-2 cells harboring KRAS G12C mutant at 0.1 uM incubated for 72 hrs by CCK8 assay relative to control", "type": "functional"}, "[18]": {"target": "T2, Serine/threonine-protein kinase B-raf", "experiment": "Inhibition of BRAF (unknown origin)"}, "HCT-116 [19]": {"tested_on": "HCT-116", "experiment": "Induction of cell cycle arrest at G0/G1 phase in human HCT-116 cells at 0.1 to 2.5 uM incubated for 24 hrs by PI/RNase staining based flow cytometry (reference value: 61.35 %)", "type": "functional", "settings": "dose 0.1-2.5 µM"}, "HCT-116 [20]": {"tested_on": "HCT-116", "experiment": "Antiproliferative activity against human HCT-116 cells harboring KRAS G13D mutant at 1 uM incubated for 72 hrs by CCK8 assay relative to control", "type": "functional"}, "[21]": {"target": "T2, Serine/threonine-protein kinase B-raf", "experiment": "Inhibition of BRAF (unknown origin) at 1 uM by kinase profiling analysis"}, "[22]": {"experiment": "Cmax in Sprague-Dawley rat at 5 mg/kg, iv", "type": "ADME, organism-based", "settings": "in vivo"}, "HCT-116 [23]": {"tested_on": "HCT-116", "experiment": "Antitumor activity against human HCT-116 cells harboring KRAS G13D mutant xenografted in NU/NU mouse assessed as tumor growth inhibition administered intravenously 5 times a week for 16 days", "type": "functional, cell-based", "settings": "dose 15-30 mg/kg, route iv, time 16.0 day"}, "MIA PaCa-2 [24]": {"tested_on": "MIA PaCa-2", "experiment": "Induction of apoptosis in human MIA PaCa-2 cells assessed as early apoptotic cells at 0.25 uM incubated for 24 hrs by Annexin V-FITC/PI staining based flow cytometry (reference value: 5.02 %)", "type": "functional"}, "[25]": {"target": "T3, Serine/threonine-protein kinase A-Raf (Homo sapiens) (UniProt P10398)", "T3 sequence (whole entry)": "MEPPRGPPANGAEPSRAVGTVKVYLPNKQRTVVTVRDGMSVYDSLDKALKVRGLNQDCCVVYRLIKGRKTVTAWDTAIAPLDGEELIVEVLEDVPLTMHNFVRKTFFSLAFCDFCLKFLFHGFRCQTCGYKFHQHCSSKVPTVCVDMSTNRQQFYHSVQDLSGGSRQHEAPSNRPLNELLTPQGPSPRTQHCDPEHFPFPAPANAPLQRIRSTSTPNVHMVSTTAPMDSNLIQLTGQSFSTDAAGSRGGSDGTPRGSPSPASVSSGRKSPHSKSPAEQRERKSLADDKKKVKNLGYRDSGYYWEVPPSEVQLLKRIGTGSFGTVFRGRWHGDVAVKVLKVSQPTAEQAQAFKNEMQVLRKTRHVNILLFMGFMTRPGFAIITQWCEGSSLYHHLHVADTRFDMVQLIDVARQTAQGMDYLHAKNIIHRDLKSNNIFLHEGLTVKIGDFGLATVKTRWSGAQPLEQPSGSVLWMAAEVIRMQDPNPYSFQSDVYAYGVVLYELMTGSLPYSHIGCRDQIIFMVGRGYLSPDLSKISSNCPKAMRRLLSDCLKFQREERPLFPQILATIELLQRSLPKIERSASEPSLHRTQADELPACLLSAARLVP", "experiment": "Binding affinity to ARAF (unknown origin) at 1 uM by kinase profiling analysis"}, "Homo sapiens": {"organism": "Homo sapiens", "experiment": "Inhibition of BRAF […] mutant (unknown origin) at 1 uM by kinase profiling analysis"}, "MIA PaCa-2 [26]": {"tested_on": "MIA PaCa-2", "experiment": "Inhibition of colony formation in human MIA PaCa-2 cells incubated for 10 days by crystal violet staining based analysis", "type": "functional, cell-based", "settings": "dose 0.01-1 µM, time 10.0 day"}, "MIA PaCa-2 [27]": {"tested_on": "MIA PaCa-2", "experiment": "Induction of cell cycle arrest at G0/G1 phase in human MIA PaCa-2 cells at 0.01 to 0.25 uM incubated for 24 hrs by PI/RNase staining based flow cytometry (reference value: 47.37 %)", "type": "functional", "settings": "dose 0.01-0.25 µM"}, "MIA PaCa-2 [28]": {"tested_on": "MIA PaCa-2", "experiment": "Induction of apoptosis in human MIA PaCa-2 cells assessed as increase in cleaved caspase-3 level upto 1 uM incubated for 24 hrs by Western blot analysis", "type": "functional, cell-based"}},
  "note": "Calls of active or inactive are those of the source. The rule behind the calls is not given here.",
  "data": [
    {"smiles": "CCNS(=O)(=O)Nc1cccc(Cn2cnc3c(F)c(Nc4ccc(C5CC5)cc4F)c(C(=O)NOCCO)cc32)c1F", "values": [
      {"measurement": "Activity", "setting": "MIA PaCa-2 [1]", "value": "Active"},
      {"measurement": "Activity", "setting": "[2]", "value": 25, "unit": "%"},
      {"measurement": "inhibition", "setting": "MIA PaCa-2 [3]", "value": "Active"},
      {"measurement": "inhibition", "setting": "[4]", "value": "Active"},
      {"measurement": "Activity", "setting": "[5]", "value": "Non-Toxic"},
      {"measurement": "Activity", "setting": "MIA PaCa-2 [6]", "value": 8.21, "unit": "%"},
      {"measurement": "IC50", "setting": "[7]", "value": 96, "unit": "nM"},
      {"measurement": "inhibition in vivo at 30 mg/kg", "setting": "[8]", "value": 70, "unit": "%"},
      {"measurement": "Activity", "setting": "[9]", "value": -3, "unit": "%"},
      {"measurement": "IC50 at 72 h", "setting": "[10]", "value": "> 50000", "unit": "nM"},
      {"measurement": "Activity", "setting": "MIA PaCa-2 [11]", "value": 32.3, "unit": "%"},
      {"measurement": "inhibition in vivo at 30 mg/kg", "setting": "HCT-116 [12]", "value": 93, "unit": "%"},
      {"measurement": "IC50", "setting": "HCT-116 [13]", "value": 79, "unit": "nM"},
      {"measurement": "inhibition", "setting": "[14]", "value": "Active"},
      {"measurement": "Activity", "setting": "[15]", "value": "Active"},
      {"measurement": "IC50", "setting": "[16]", "value": 28, "unit": "nM"},
      {"measurement": "inhibition", "setting": "C-26", "value": "Active"},
      {"measurement": "inhibition at 0.1 µM", "setting": "MIA PaCa-2 [17]", "value": 85, "unit": "%"},
      {"measurement": "IC50", "setting": "[18]", "value": 3, "unit": "nM"},
      {"measurement": "Activity", "setting": "HCT-116 [19]", "value": 79.63, "unit": "%"},
      {"measurement": "inhibition at 1 µM", "setting": "HCT-116 [20]", "value": 61.5, "unit": "%"},
      {"measurement": "inhibition", "setting": "[21]", "value": "Active"},
      {"measurement": "Cmax", "setting": "[22]", "value": 603, "unit": "ng/mL"},
      {"measurement": "inhibition", "setting": "HCT-116 [23]", "value": "Active"},
      {"measurement": "Activity", "setting": "MIA PaCa-2 [24]", "value": 30.9, "unit": "%"},
      {"measurement": "Activity", "setting": "[25]", "value": "Active"},
      {"measurement": "inhibition", "setting": "Homo sapiens", "value": "Active"},
      {"measurement": "inhibition", "setting": "MIA PaCa-2 [26]", "value": "Dose-Dependent Effect"},
      {"measurement": "Activity", "setting": "MIA PaCa-2 [27]", "value": 87.94, "unit": "%"},
      {"measurement": "Activity", "setting": "MIA PaCa-2 [28]", "value": "Active"}
    ]}
  ]
}
